US10226503B2, “Plant extract composition for reducing topical fat and promoting weight loss as well as applications thereof” (Caliway Biopharmaceuticals Co., Ltd., priority 2014, dated 2019)

Columns and labels:
[1] = system: adipose tissue in the inferior inguinal region; assay: Embodiment 10: observation of the injected inferior inguinal region after dissection; type: in vivo, Sprague-Dawley rats; settings: FIG. 11A-F
Text: There were 9 groups in this experiment, that is, the HFD group, the curcumin group, the resveratrol group, the UL003C group, the UL003R group, the UL005 group, the UL006 group, the UL003C6 group, and the UL003R4 group. The rats were fed and injected in the same manner described in Embodiment 9.

[2] = system: lower inguinal subcutaneous fat; assay: Embodiment 10: resveratrol:curcumin ratio effect (with ELP) on subcutaneous fat of high-fat diet rats; type: in vivo, Sprague-Dawley rats; settings: 5 mg/mL with ELP, injected as in Embodiment 9, relative to HFD group 100±22.3%
Text: The bilateral lower inguinal subcutaneous fat pads of rats were dissected and weighed, and the weights of the bilateral lower inguinal subcutaneous fat pads were summed to calculate the amount of lower inguinal subcutaneous fat. […] The data were presented as mean±SD and analyzed by one-way ANOVA. Statistical results were shown as symbols or letters. Different symbols or letters indicates statistically significant difference (p<0.05), and identical symbols or letters indicates no statistically significant difference (p>0.05).
The preparation of pharmaceutical composition (curcumin solution, resveratrol solution, UL003C solution, UL003R solution, UL005 solution, UL006 solution, UL003C6 solution, or UL003R4 solution) in each group was roughly the same as the experimental procedure in Experiment 9. The only differences were the ratio of resveratrol and curcumin. In this experiment, the guideline of adding all of the ratio of resveratrol and curcumin, the weight of ELP, and the weight of normal saline for injection was shown in Table 1.
In this experiment, the ratios of resveratrol to curcumin in the first group to the eighth group were 0:1, 1:0, 1:19, 9:1, 1:1, 1:30, 1:50, 20:1, respectively, and the final concentrations of resveratrol and curcumin in the pharmaceutical compositions prepared in the first to the eighth group were 5 mg/mL. […]

[3] = system: mature adipocytes (3T3-L1); assay: Adipocyte apoptosis assay (V), Annexin V/PI flow cytometry; type: cell-based; settings: 50 ppm, 24 hours, DMSO control 5.14±2.05%
Method: 3T3-L1 cells were incubated in 12-well plates with 1×10^5 cells per well. The medium was replaced with a DMI medium containing 5 μg/ml of insulin, 0.1 μM of dexamethasone, and 0.5 mM of 3-isobutyl-1-methylxanthine (referred as IBMX) on the third day of incubation. After seven days incubation in the medium containing differentiation agent and waiting until the adipocyte cells matures, with the exception of the DMSO solvent control group, 50 ppm of curcumin, resveratrol, composition UL003C6, composition UL003C5, composition UL003C4, composition UL003C3, composition UL003C2, composition UL003C1, composition UL003B, composition UL003R1, composition UL003R2, and composition UL003R3 were added to different wells respectively; there are 13 groups in the experiment, and four replicates were performed in each group.
Please refer to Table 1, which presents the experimental matters and their final concentration in each group. […]
After administration process and 24 hours incubation, cells were collected and Annexin V/PI stain was performed. Cell apoptosis was analyzed by flow cytometry, wherein Annexin V−PI− cells represented the number of the survival mature adipocytes, and Annexin V+PI+ cells represented the number of the apoptotic mature adipocytes; this method is used to compare the apoptosis degree induced by the experimental matters in each group.

[4] = Embodiment 10: resveratrol:curcumin ratio effect (with ELP) on body weight gain of high-fat diet rats; type: in vivo, Sprague-Dawley rats; settings: 5 mg/mL with ELP, relative to HFD group 100.0±25.7%
Method: The body weight of each rat was recorded and defined as the “post-experimental body weight” of each rat. The “total body weight gain” of each rat was obtained by subtracting its “pre-experimental body weight” from its “post-experimental body weight”. The “relative weight gain” was obtained by dividing the total body weight gain of each group by the total body weight gain of the HFD group.
The only differences were the ratio of resveratrol and curcumin.
In this experiment, the ratios of resveratrol to curcumin in the first group to the eighth group were 0:1, 1:0, 1:19, 9:1, 1:1, 1:30, 1:50, 20:1, respectively, and the final concentrations of resveratrol and curcumin in the pharmaceutical compositions prepared in the first to the eighth group were 5 mg/mL. That is, the preparation method of pharmaceutical composition in the first to the eighth group, the weight ratios of resveratrol to curcumin were 0:1, 1:0, 1:19, 9:1, 1:1, 1:30, 1:50, 20:1, respectively, and the final concentrations of resveratrol and curcumin in the prepared pharmaceutical compositions were 5 mg/mL. Wherein, when the final concentration of drug was presented as mg/mL, it indicated the number of milligrams of resveratrol and curcumin per milliliter of pharmaceutical composition.

[5] = system: mature adipocytes (3T3-L1); assay: Adipocyte apoptosis assay (IV), Annexin V/PI flow cytometry; type: cell-based; settings: 100 ppm, 24 hours
Method: In this embodiment, the effect of composition UL003C in the present invention on mature adipocytes apoptosis promotion was compared with that of the well-known sodium deoxycholate. In this embodiment, 3T3-L1 cells were incubated in 12-well plates with 1×10^5 cells per well. The medium was replaced with an incubation fluid containing 5 μg/ml of insulin differentiation agent, 1 μM of dexamethasone, and 0.5 mM of 3-isobutyl-1-methylxanthine on the fourth day of incubation. After four days incubation in the incubation fluid containing differentiation agent and waiting until the adipocyte cells matures, with the exception of the DMSO solvent control group, 100 ppm of composition UL003C and sodium deoxycholate were added to different wells respectively; there are three groups in the experiment, and three replicates were performed in each group. After administration process and 24 hours incubation, cells were collected and Annexin V/PI stain was performed. Cell apoptosis was analyzed by flow cytometry, wherein Annexin V−PI− cells represented the number of the survival mature adipocytes, and Annexin V+PI+ cells represented the number of the apoptotic mature adipocytes; this method is used to compare the apoptosis degree induced by the experimental matters in the two groups.

| Molecule | ulcer / curcumin precipitation in the inferior inguinal region (injection site) [1] | relative weight of the lower inguinal subcutaneous fat [2] | percentage of apoptotic cells [3] | relative weight gain [4] | mature adipocytes apoptosis compared to DMSO solvent control group [5] |
| --- | --- | --- | --- | --- | --- |
| COc1cc(/C=C/C(=O)CC(=O)/C=C/c2ccc(O)c(OC)c2)ccc1O [curcumin] | curcumin precipitation was observed | 90.4±12.6% | 15.43±4.31% | 103.6±7.2% | – |
| Oc1ccc(C=Cc2cc(O)cc(O)c2)cc1 [resveratrol] | ulcer | 85.7±5.1% | 8.48±3.23% | 91.7±11.4% | – |
| sodium deoxycholate | – | – | – | – | no significant difference |
